Values quoted from earlier work as cited in patent publication US6635803B1, “Method to improve drought tolerance in plants” (Regents of the University of California, priority 1999, dated 2003).

Tests used:
K+in channel = conditions: 10 mM
[1] = tested on: K+in channels in guard cells; conditions: cytosolic second messengers

SMILES	final stomatal apertures (stomata)	block of K+in channel currents (K+in channel) [%]	effect on K+in channels [1]
[Ba+2] [Ba^2+]	does not affect	90	–
[Ca+2] [Ca^2+]	–	–	inhibit
Nc1nc2c(ncn2[C@@H]2O[C@H](COP(=O)(O)OP(=O)(O)OP(O)(O)=S)[C@@H](O)[C@H]2O)c(=O)[nH]1 [GTPγS]	–	–	inhibit
O=P(O)(O)O[C@@H]1[C@H](O)[C@H](O)[C@@H](OP(=O)(O)O)[C@H](OP(=O)(O)O)[C@H]1O [inositol-1,4,5-triphosphate]	–	–	inhibit
